Source: PubChem BioAssay AID1552 (Sanford-Burnham Center for Chemical Genomics, 2009)
The source made the active and inactive calls. How the calls were made is not given here.

What follows are compounds tested against Ubiquitin-conjugating enzyme E2 N (Homo sapiens) (UniProt P61088) (assay: UBE2N binders by NMR, biophysical, purified protein (AID 1552)). Conditions: NMR binding to purified UBE2N.
Sequence of Ubiquitin-conjugating enzyme E2 N (Homo sapiens) (P61088 whole entry, looked up): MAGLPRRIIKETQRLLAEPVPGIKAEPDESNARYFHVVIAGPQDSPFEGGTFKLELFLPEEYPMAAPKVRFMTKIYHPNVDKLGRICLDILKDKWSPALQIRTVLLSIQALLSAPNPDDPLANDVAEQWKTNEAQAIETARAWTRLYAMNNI
In the case of `Oc1ccc2c(c1)OCC1(O)Cc3cc(O)c(O)cc3C21` (stereo not drawn), the Kd is reported as > 4 mM (inactive). With `Cc1cc(C(=O)NCc2ccccc2Br)no1` the Kd was > 4 mM (inactive). With `C[C@@H]1CC[C@@]23CCC4(C)[C@@](C=CC5[C@@]6(C)CCC(=O)C(C)(C)C6CC[C@]54C)(OC2=O)C3[C@H]1C` (stereo partly drawn) the Kd was > 4 mM (inactive). With `COc1cc([C@@H]2c3cc4c(cc3[C@H](O)[C@H]3COC(=O)[C@H]23)OCO4)cc(OC)c1OC` the Kd was > 4 mM (inactive). In the case of `COc1cc(O)cc(/C=C/c2ccccc2)c1`, the Kd is reported as > 4 mM (inactive). In the case of `CCOC(=O)CSc1nnc(C)c(=O)[nH]1`, the Kd is reported as > 4 mM (inactive). With `Cc1nnc(NCCN2CCOCC2)[nH]c1=O` the Kd was > 4 mM (inactive). In the case of `Cc1ccc2[nH]c3nc(=S)[nH]nc3c2c1`, the Kd is reported as > 4 mM (inactive). `COC(=O)C[C@H]1C(C)(C)C(=O)[C@@H]2CC3=C(CC[C@]4(C)C3=CC(=O)O[C@H]4c3ccoc3)C1(C)C2=O` was tested, and the Kd was > 4 mM (inactive). In the case of `c1cc2n(c1)CCNC2c1ccncc1` (stereo not drawn), the Kd is reported as > 4 mM (inactive). With `Cc1nc2ccccc2c(=O)n1CCCn1ccnc1` the Kd was > 4 mM (inactive). In the case of `c1coc(CNc2ncnc3nc[nH]c23)c1`, the Kd is reported as > 4 mM (inactive). In the case of `COc1c(O)cc(O)cc1O`, the Kd is reported as > 4 mM (inactive). `COc1ccc(CN2CCOCC2)c(C)c1C` was tested, and the Kd was > 4 mM (inactive). With `Cn1nc(C(=O)Nc2cccnc2)cc1Cl` the Kd was > 4 mM (inactive). With `O=C(O)CN1C(=O)c2cccc([N+](=O)[O-])c2C1=O` the Kd was > 4 mM (inactive). With `CC(=O)N(C)Cc1nc2ccccc2n1C` the Kd was > 4 mM (inactive). `O=C1CC(=O)N2N=C(c3ccccc3)SC2=N1` was tested, and the Kd was > 4 mM (inactive). With `CN(c1ccccc1C(=O)N1CCCC1)S(C)(=O)=O` the Kd was > 4 mM (inactive). In the case of `NC(=O)CSc1nnc2ccc3ccccc3n12`, the Kd is reported as > 4 mM (inactive). With `Cc1cc(C(=O)NN2CCOCC2)c(C)o1` the Kd was > 4 mM (inactive). With `CC1(C)NC(=O)N(CN2CCOCC2)C1=O` the Kd was > 4 mM (inactive). For `COc1ccc2c(c1)c1n[nH]c(=S)nc1n2C`, the Kd was > 4 mM (inactive). In the case of `CC1(C)CC(=O)c2cnn(-c3nc4ccccc4[nH]3)c2C1`, the Kd is reported as > 4 mM (inactive). For `CCOC(=O)c1c(C)nc2c(C#N)cnn2c1C`, the Kd was > 4 mM (inactive). In the case of `CC(=O)Oc1ccc2c(c1)c(C(C)=O)c(C)n2C`, the Kd is reported as > 4 mM (inactive). For `CC(=O)C1=C(O)C(=O)NC1c1ccccc1` (stereo not drawn), the Kd was > 4 mM (inactive). `O=c1c2c(nc3nc(COc4ccccc4)[nH]n13)CCC2` was tested, and the Kd was > 4 mM (inactive). With `COc1cc(C(=S)N2CCCC2)cc(Cl)c1O` the Kd was > 4 mM (inactive). In the case of `O=C1CNCc2[nH]c3ccccc3c2N1c1ccccc1`, the Kd is reported as > 4 mM (inactive). With `CC(=O)c1c(O)n(C)c(=S)n(C)c1=O` the Kd was > 4 mM (inactive). `COC(=O)c1ccc(Cl)c(NC(C)=O)c1` was tested, and the Kd was > 4 mM (inactive). In the case of `O=C(Nc1cccnc1)c1c(F)c(F)c(F)c(F)c1F`, the Kd is reported as > 4 mM (inactive). `CNC(=O)C(=O)Nc1ccc(F)cc1` was tested, and the Kd was > 4 mM (inactive). `C/C=C/C(=O)Nc1ccc(NC(C)=O)cc1` was tested, and the Kd was > 4 mM (inactive). `CC(C)NC(=S)NCc1cnn(C)c1` was tested, and the Kd was > 4 mM (inactive). With `Cc1ccc(C)c(S(=O)(=O)NCc2cccnc2)c1` the Kd was > 4 mM (inactive). In the case of `O=c1[nH]cc(N=Cc2ccc(F)cc2)c(=O)[nH]1`, the Kd is reported as > 4 mM (inactive). In the case of `O=c1[nH]c(CN2CCN(CCO)CC2)nc2ccccc12`, the Kd is reported as > 4 mM (inactive). For `CCOC(=O)CN1C(=O)c2ccccc2C1=O`, the Kd was > 4 mM (inactive). In the case of `CC1CCN(C(=S)c2ccccc2O)CC1`, the Kd is reported as > 4 mM (inactive). `COc1cccc(O)c1O` was tested, and the Kd was > 4 mM (inactive). In the case of `Cc1ccnc(NS(=O)(=O)c2cccs2)c1`, the Kd is reported as > 4 mM (inactive). With `CC(=O)OC1CC[C@@]2(C)C(CCC3C2CC[C@]2(C)C(C4=CC(=O)OC4)C(OC(C)=O)CC32O)C1` (stereo partly drawn) the Kd was > 4 mM (inactive). For `CN1CCN(CC(=O)Nc2ccccc2)CC1`, the Kd was > 4 mM (inactive). For `O=C(c1cc(-c2ccccc2)on1)N1CCCC1`, the Kd was > 4 mM (inactive). In the case of `Nc1ccc2sccc2c1`, the Kd is reported as > 4 mM (inactive). With `CC(C)=CC1C(CO)C1(C)C` (stereo not drawn) the Kd was > 4 mM (inactive). For `Cc1[nH]c2ccccc2c(=O)c1CO`, the Kd was > 4 mM (inactive). For `COC1=C(OC)C(=O)C(C/C=C(\C)CC/C=C(\C)CC/C=C(\C)CC/C=C(/C)CC/C=C(\C)CC/C=C(\C)CC/C=C(\C)CC/C=C(\C)CC/C=C(\C)CCC=C(C)C)=C(C)C1=O`, the Kd was > 4 mM (inactive). In the case of `COc1ccc(-c2oc3cc(O[C@H]4O[C@H](CO)[C@@H](O)[C@H](O)[C@H]4O)c(OC)c(O)c3c(=O)c2OC)cc1O`, the Kd is reported as > 4 mM (inactive). In the case of `CC(=O)NCC1(c2ccccc2)CCOCC1`, the Kd is reported as > 4 mM (inactive). In the case of `COc1ccc(NC(=O)N2CCCCC2)cc1`, the Kd is reported as > 4 mM (inactive). In the case of `O=c1oc(-c2ccccc2)nc2c1cnn2-c1ccccc1`, the Kd is reported as > 4 mM (inactive). `O=S1(=O)CCC(Nc2ccccc2)C1` (stereo not drawn) was tested, and the Kd was > 4 mM (inactive). `C=CCn1c(-c2ccc(O)cc2)n[nH]c1=S` was tested, and the Kd was > 4 mM (inactive). For `NCCc1nc2ccccc2[nH]1`, the Kd was > 4 mM (inactive). In the case of `OCc1ccc2c(c1)OCCCO2`, the Kd is reported as > 4 mM (inactive). In the case of `CCOC(=O)CNC(=O)CSc1nnc(C)c(=O)[nH]1`, the Kd is reported as > 4 mM (inactive). With `Cc1ccc(Nc2nc(N)nc(CC#N)n2)cc1` the Kd was > 4 mM (inactive). `COc1ccccc1NC(=O)NC(N)=O` was tested, and the Kd was > 4 mM (inactive). With `O=C1CN(C(=O)CN2CCOCC2)c2ccccc2N1` the Kd was > 4 mM (inactive). `Cc1ccc(-c2nn3c(C)nnc3s2)cc1N` was tested, and the Kd was > 4 mM (inactive). `Nc1ccc2c(c1)OCCO2` was tested, and the Kd was > 4 mM (inactive). With `COc1cc(N)ccc1NC(=O)c1cccs1` the Kd was > 4 mM (inactive). For `O=[N+]([O-])c1cccc(CN2CCC(O)CC2)c1`, the Kd was > 4 mM (inactive). With `CC(=O)Nc1nc(-c2cccs2)cs1` the Kd was > 4 mM (inactive). For `NC(=O)C1CC2C=CC1C2` (stereo not drawn), the Kd was > 4 mM (inactive). In the case of `CN(C)CC(O)C1CCOC(C)(C)C1` (stereo not drawn), the Kd is reported as > 4 mM (inactive). With `Cc1cc(C)nc(/N=C(/N)N2CCC(C(N)=O)CC2)n1` the Kd was > 4 mM (inactive). For `NCc1ccc(-c2csnn2)cc1`, the Kd was > 4 mM (inactive). With `CC(=O)c1c(O)c(C)c(O)c2c1OC1=CC(=O)C(C(C)=O)C(=O)C12C` (stereo not drawn) the Kd was > 4 mM (inactive). For `COc1ccc2c(=O)c(CC(=O)O)coc2c1`, the Kd was > 4 mM (inactive). In the case of `Cc1cc(Cl)ccc1NC(=O)C(N)=O`, the Kd is reported as > 4 mM (inactive). In the case of `Cc1c(-c2ccccc2)[n+](=O)c(-c2ccco2)c(C)n1[O-]`, the Kd is reported as > 4 mM (inactive). `O=C(O)c1ccc(-n2cccn2)cc1` was tested, and the Kd was > 4 mM (inactive). For `Nc1cc(C(F)(F)F)ccc1N1CCOCC1`, the Kd was > 4 mM (inactive). With `CC(=O)O[C@H]1CC[C@@]2(C)C(=CC(=O)C3C4CCC(C(C)CCCC(C)C)[C@@]4(C)CCC32)C1` (stereo partly drawn) the Kd was > 4 mM (inactive). In the case of `CN1CCC(NC(=O)C2CCCO2)CC1` (stereo not drawn), the Kd is reported as > 4 mM (inactive). For `OCC1CCCCCN1` (stereo not drawn), the Kd was > 4 mM (inactive). `CC(C)n1c(-c2ccncc2)n[nH]c1=S` was tested, and the Kd was > 4 mM (inactive). In the case of `O=C(O)c1ccc(N2CCCCC2)cc1`, the Kd is reported as > 4 mM (inactive). For `Cn1c(O)c(C2=NC(=S)NC2=O)c2ccccc21`, the Kd was > 4 mM (inactive). In the case of `O=C(Cc1ccccc1)Nc1c[nH]c(=O)[nH]c1=O`, the Kd is reported as > 4 mM (inactive). In the case of `O=C(c1ccccc1)c1ccccc1C(=O)N1CCCC1`, the Kd is reported as > 4 mM (inactive). With `CC(C)=CCc1c2c(c3occ(-c4ccc(O)cc4)c(=O)c3c1O)C=CC(C)(C)O2` the Kd was > 4 mM (inactive). With `O=C(NC1CC1)c1ccccc1[N+](=O)[O-]` the Kd was > 4 mM (inactive). For `CC12CN(CC#N)CC(C)(CN(CC#N)C1)C2=O`, the Kd was > 4 mM (inactive). In the case of `CN1CCN(Cc2cccnc2)CC1`, the Kd is reported as > 4 mM (inactive). For `Cc1c(C(=O)NCc2ccccn2)oc2ccccc12`, the Kd was > 4 mM (inactive). In the case of `CN(c1ccccc1C(=O)N1CCOCC1)S(C)(=O)=O`, the Kd is reported as > 4 mM (inactive). For `CSc1cccc(NC(=O)c2c(Cl)cnn2C)c1`, the Kd was > 4 mM (inactive). For `CSc1nc(NC(C)(C)C)nc(N2CCOCC2)n1`, the Kd was > 4 mM (inactive). For `NCc1ccc(-c2ccccn2)s1`, the Kd was > 4 mM (inactive). In the case of `NC1=NC(=O)C(Cc2cccc([N+](=O)[O-])c2)S1` (stereo not drawn), the Kd is reported as > 4 mM (inactive). `O=C(Nc1ccc(O)cc1)N1CCOCC1` was tested, and the Kd was > 4 mM (inactive). In the case of `CCn1nnc(NC(=O)c2cc3ccccc3o2)n1`, the Kd is reported as > 4 mM (inactive). For `COC(=O)CC1C(C)(C)C(OC(C)=O)[C@@H]2[C@@H](OC(C)=O)[C@]34O[C@@]2(O)[C@]1(C)C3CC[C@]1(C)C4=CC(=O)O[C@H]1c1ccoc1` (stereo partly drawn), the Kd was > 4 mM (inactive). In the case of `c1ccc(CNc2ncnc3nc[nH]c23)nc1`, the Kd is reported as > 4 mM (inactive). In the case of `CC(=O)Nc1cc2c(cc1C(=O)C(C)C)OCCO2`, the Kd is reported as > 4 mM (inactive). In the case of `c1ccc2c(c1)ncn2CCn1cnc2ccccc21`, the Kd is reported as > 4 mM (inactive). In the case of `Cc1cc(C(=O)NCc2cccs2)cs1`, the Kd is reported as > 4 mM (inactive). For `NC(=O)CNC(=O)c1ccccc1`, the Kd was > 4 mM (inactive). In the case of `NCc1ccc2c(c1)OCCCO2`, the Kd is reported as > 4 mM (inactive). For `O=c1[nH]nc(Cc2ccccn2)c2ccccc12`, the Kd was > 4 mM (inactive). `Nc1ccccc1OC(F)(F)F` was tested, and the Kd was > 4 mM (inactive). In the case of `CC1CC[C@]2(NC1)O[C@H]1CC3C4CC[C@H]5C[C@@H](O)CC[C@]5(C)C4CC[C@]3(C)[C@H]1[C@@H]2C` (stereo partly drawn), the Kd is reported as > 4 mM (inactive). For `ON=c1ccc2nc3ccccc3nc2cc1`, the Kd was > 4 mM (inactive). With `O=S1(=O)CCC(NC(=S)Nc2ccccc2)C1` (stereo not drawn) the Kd was > 4 mM (inactive). In the case of `Cc1cc(C)n(-c2cccc3cccnc23)n1`, the Kd is reported as > 4 mM (inactive). In the case of `O=c1[nH]cc(NCc2ccccc2)c(=O)[nH]1`, the Kd is reported as > 4 mM (inactive). `COc1ccc2[nH]c(O)c(NC(C)=O)c2c1` was tested, and the Kd was > 4 mM (inactive). For `COc1cc(OC)c2c(=O)c(-c3ccccc3)coc2c1`, the Kd was > 4 mM (inactive). For `COC(=O)c1ccc(C(=S)N2CCOCC2)cc1`, the Kd was > 4 mM (inactive). For `COc1cc2c(cc1OC)C(=O)OC2`, the Kd was > 4 mM (inactive). `COc1ncccc1N` was tested, and the Kd was > 4 mM (inactive). `CN(C)S(=O)(=O)c1cccc(N)c1` was tested, and the Kd was > 4 mM (inactive). In the case of `O=C(O)CCCCCCCC(=O)O`, the Kd is reported as > 4 mM (inactive).
